Assay results taken from patent EP0043274A2, “Antithrombotic treatment” (priority 1980, dated 1982).
“And” between values parts separate entries of the source, which are not always exact repeats. Identical values can stand only once. Like-named read-outs stand apart in the source and are kept apart here.

Tests used:
human plasma [1] = type: biochemical
human plasma [2] = type: biochemical; remark: listed apart in the source
F VII = biological target: T1, F VII (Homo sapiens, UniProt P08709); test: Coagulation factor assay (Biggs): Factor VII; type: biochemical; details: for F VII (%): U.S.P. grade, control 73; for inhibition of coagulation factor VII: in vitro
T1 construct: from tissue; host or cells: human plasma
T1 sequence (P08709 61-466): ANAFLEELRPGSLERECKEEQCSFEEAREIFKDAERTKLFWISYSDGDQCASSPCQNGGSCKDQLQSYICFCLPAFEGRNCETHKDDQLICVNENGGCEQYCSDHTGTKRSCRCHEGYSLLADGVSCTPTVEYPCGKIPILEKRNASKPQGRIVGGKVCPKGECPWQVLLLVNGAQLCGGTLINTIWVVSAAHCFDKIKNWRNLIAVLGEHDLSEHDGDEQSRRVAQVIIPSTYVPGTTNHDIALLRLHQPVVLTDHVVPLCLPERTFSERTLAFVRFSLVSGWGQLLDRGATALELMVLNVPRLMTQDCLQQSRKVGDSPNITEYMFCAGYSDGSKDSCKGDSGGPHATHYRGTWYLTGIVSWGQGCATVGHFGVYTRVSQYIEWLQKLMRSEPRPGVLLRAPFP
Method: (§1) The effect of U.S.P. grade sodium bisulfite on blood coagulation factors is evaluated by standard procedures (Biggs) and the results are shown in Table III below.
(§2) References for PT, PTT, and assays of all the coagulation factors can be found in a standard textbook, entitled "Human Blood Coagulation, Haemostasis and Thrombosis", edited by Rosemary Biggs, published by Blackwell Scientific Publications, Oxford, England (2nd edition), pages 670-705, 1976.

F IX = biological target: T2, F IX (Homo sapiens, UniProt P00740); test: Coagulation factor assay (Biggs): Factor IX; type: biochemical; details: for F IX (%): U.S.P. grade, control 66; for inhibition of coagulation factor IX: in vitro; for Factor IX (%): single experiment, control 50
T2 construct: from tissue; host or cells: human plasma
Method: as §1, §2

F X = biological target: T3, F X (Homo sapiens, UniProt P00742); test: Coagulation factor assay (Biggs): Factor X; type: biochemical; details: for F X (%): U.S.P. grade, control 78; for inhibition of coagulation factor X: in vitro
T3 construct: from tissue; host or cells: human plasma
Method: as §1, §2

F XI = biological target: T4, F XI (Homo sapiens, UniProt P03951); test: Coagulation factor assay (Biggs): Factor XI; type: biochemical; details: for F XI (%): U.S.P. grade, control 117; for inhibition of coagulation factor XI: in vitro
T4 construct: from tissue; host or cells: human plasma
Method: as §1, §2

F XII = biological target: T5, F XII (Homo sapiens, UniProt P00748); test: Coagulation factor assay (Biggs): Factor XII; type: biochemical; details: for F XII (%): U.S.P. grade, control 86; for inhibition of coagulation factor XII: in vitro
T5 construct: from tissue; host or cells: human plasma
T5 sequence (P00748 20-615): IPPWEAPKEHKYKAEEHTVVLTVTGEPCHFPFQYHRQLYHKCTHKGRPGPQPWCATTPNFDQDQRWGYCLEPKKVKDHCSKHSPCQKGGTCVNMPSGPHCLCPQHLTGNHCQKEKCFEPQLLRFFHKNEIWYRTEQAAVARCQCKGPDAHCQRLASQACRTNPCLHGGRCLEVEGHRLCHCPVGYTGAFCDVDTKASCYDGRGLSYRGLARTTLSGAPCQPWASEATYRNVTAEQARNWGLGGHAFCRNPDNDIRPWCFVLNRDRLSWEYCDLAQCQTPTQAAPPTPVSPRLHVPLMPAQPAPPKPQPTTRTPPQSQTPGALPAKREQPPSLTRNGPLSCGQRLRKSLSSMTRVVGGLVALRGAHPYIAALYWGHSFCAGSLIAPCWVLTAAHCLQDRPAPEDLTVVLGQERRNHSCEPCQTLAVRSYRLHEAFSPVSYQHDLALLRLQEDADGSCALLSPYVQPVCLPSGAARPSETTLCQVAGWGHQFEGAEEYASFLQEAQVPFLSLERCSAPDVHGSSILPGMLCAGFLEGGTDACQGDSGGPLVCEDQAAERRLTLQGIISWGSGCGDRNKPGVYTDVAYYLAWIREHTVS
Method: as §1, §2

rabbit plasma = test: Blood coagulation tests (PT, PTT, coagulation factors) in vitro; type: biochemical; details: for PT and PTT (effect in words): rabbit plasma in vitro, 0.5 mg/ml
Text: The alkali metalbisulfites, sodium and potassium, and ammonium bisulfite are found to prolong PT and PTT in a dose-related fashion.
The Solution I is found to prolong PT and PTT in a dose related fashion. […] The agent is active in inhibiting various coagulation factors, including factors VII, IX, X, XI, and XII.

[3] = system: thrombus formation in the jugular vein; test: I 125 fibrinogen technique, damaged jugular vein (venous thrombosis), continuous infusion; type: in vivo, rabbits; details: for mortality of infused rabbits: continuous infusion; for radioactivity (I 125 fibrinogen) in damaged jugular vein of saline control rabbit relative to treated rabbit / thrombus formation in the jugular vein (conclusion in words): continuous infusion for five hours
Method: The anti venous thrombotic effect of sodium bisulfite is evaluated in rabbits by using I ^125 fibrinogen technique as described in an article in "Archives of Surgery" Vol. 104, pg. 152 (1972).
The rabbit was continuously infused with aqueous sodium bisulfite solution at the rate of […]. (5.154 gram per hour) (animal body weight 2.3 kg) for a time of five hours. After 5 hours, the animal was sacrificed and the radioactive fibrinogen accumulated in the damaged jugular vein was determined. The radioactivity on the contra-lateral (undamaged) jugular vein was also determined to serve as a control. Concurrently, another rabbit had experienced the same procedure but received only a standard sodium chloride solution as a control. The rabbit from the normal saline solution has seven times as much radioactivity as his counterpart infused with sodium bisulfite.
Two jugular veins on a normal, healthy rabbit are exposed and one of the veins is systematically damaged by clamping in two longitudinally spaced places. The rabbit is then continuously infused with aqueous sodium formaldehyde bisulfite at the rate of […] (5.154 gram per hour) (animal body weight 2.3 kg). The rabbit is then injected with fibrinogen labeled with I^125. After 5 hours, the damaged jugular vein is evaluated for radioacive count with a Geiger counter.
This iodine 125 evaluation technique is described by Kakkar in Archieves of Surgery, Vol. 104, pg. 152 (1972) and by Kelton, J.G. et al, Journal of Clinical Investigation, Vol. 62, pgs. 892-895, (1978). […] Other rabbits, similarly evaluated, died, apparently because of overdose by the infustion technique.

T2 sequence (P00740 47-461): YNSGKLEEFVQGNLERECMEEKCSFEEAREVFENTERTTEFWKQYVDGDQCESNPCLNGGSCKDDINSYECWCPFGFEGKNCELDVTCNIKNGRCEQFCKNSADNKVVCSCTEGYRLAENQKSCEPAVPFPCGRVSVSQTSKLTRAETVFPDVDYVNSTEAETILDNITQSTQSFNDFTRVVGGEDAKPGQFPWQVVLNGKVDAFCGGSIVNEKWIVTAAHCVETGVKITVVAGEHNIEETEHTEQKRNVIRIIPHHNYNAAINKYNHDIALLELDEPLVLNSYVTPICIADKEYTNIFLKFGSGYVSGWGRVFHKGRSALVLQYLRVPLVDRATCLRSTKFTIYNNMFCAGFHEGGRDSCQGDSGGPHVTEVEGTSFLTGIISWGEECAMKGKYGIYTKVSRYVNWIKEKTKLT
T3 sequence (P00742 41-488): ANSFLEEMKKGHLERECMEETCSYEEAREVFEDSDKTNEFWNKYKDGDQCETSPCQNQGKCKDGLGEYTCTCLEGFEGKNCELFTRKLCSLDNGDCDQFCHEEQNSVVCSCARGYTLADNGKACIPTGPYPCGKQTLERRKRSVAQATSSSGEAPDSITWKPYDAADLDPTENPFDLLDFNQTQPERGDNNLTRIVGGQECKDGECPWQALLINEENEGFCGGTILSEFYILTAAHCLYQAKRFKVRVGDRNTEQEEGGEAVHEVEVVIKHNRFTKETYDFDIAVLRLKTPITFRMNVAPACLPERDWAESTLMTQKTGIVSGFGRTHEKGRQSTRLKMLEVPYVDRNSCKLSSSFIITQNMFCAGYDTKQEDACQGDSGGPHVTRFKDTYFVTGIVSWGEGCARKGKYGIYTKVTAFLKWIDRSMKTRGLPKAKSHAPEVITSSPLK
T4 sequence (P03951 19-625): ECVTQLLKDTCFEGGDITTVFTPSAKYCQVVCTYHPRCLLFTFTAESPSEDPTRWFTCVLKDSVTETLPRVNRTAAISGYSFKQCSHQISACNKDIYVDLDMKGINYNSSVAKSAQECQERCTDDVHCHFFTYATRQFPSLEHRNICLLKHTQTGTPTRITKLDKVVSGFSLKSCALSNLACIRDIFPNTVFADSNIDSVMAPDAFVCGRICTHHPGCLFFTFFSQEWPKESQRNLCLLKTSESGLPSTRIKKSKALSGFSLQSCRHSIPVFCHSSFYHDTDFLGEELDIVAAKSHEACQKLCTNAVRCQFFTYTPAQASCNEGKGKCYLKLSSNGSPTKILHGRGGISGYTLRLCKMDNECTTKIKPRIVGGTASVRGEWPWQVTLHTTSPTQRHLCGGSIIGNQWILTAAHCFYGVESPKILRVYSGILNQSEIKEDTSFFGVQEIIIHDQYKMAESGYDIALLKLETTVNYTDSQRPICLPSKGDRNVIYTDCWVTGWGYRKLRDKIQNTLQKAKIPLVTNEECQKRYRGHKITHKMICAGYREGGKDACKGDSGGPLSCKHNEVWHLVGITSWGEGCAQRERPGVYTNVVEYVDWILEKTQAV

Compound: Sodium bisulfite
- PT (human plasma [1]): 22.42 s
- PT(seconds) Exp. 1 A (human plasma [1]): 25.5 s and 22.1 s
- PT(seconds) Exp. 2 A (human plasma [1]): 23.2 s
- PT (human plasma [1]; 0.01 mg/ml, U.S.P. grade, control 34.67): 33.37 s
- PT (human plasma [1]; 0.05 mg/ml, U.S.P. grade, control 34.67): 34.00 s
- PT (human plasma [1]; 0.1 mg/ml, U.S.P. grade, control 34.67): 34.85 s
- PT (human plasma [1]; 0.5 mg/ml, U.S.P. grade, control 34.67): 42.73 s
- PT (human plasma [1]; 1.0 mg/ml, U.S.P. grade, control 34.67): 85.33 s
- PT (human plasma [1]; 5.0 mg/ml, U.S.P. grade, control 34.67): >150 s
- PT (human plasma [1]; coded agents 0.5mg/ml, […], control 12.92): 23.06 s
- PT (effect in words) (human plasma [1]; in vitro, 0.5 mg/ml): significantly prolong
- PTT(seconds) Exp. 1 A (human plasma [2]): 128.2 s
- PTT (human plasma [2]; 0.01 mg/ml, U.S.P. grade, control 12.20): 12.33 s
- PTT (human plasma [2]; 0.05 mg/ml, U.S.P. grade, control 12.20): 12.43 s
- PTT (human plasma [2]; 0.1 mg/ml, U.S.P. grade, control 12.20): 12.85 s
- PTT (human plasma [2]; 0.5 mg/ml, U.S.P. grade, control 12.20): 15.43 s
- PTT (human plasma [2]; 0.5 mg/ml, two different days, control 42.6 / 42.10): 120.35 s
- PTT (human plasma [2]; 1.0 mg/ml, U.S.P. grade, control 12.20): 22.63 s
- PTT (human plasma [2]; 5.0 mg/ml, U.S.P. grade, control 12.20): >150 s
- PTT(seconds) Exp. 2 A (human plasma [2]; Active Agent 0.5/ml, test sequences A and B, control 50.5 (A), 44.5 (B)): 162.6 s and 121.9 s
- PTT (human plasma [2]; coded agents 0.5mg/ml, […], control 43.38): 114.80 s
- PTT (effect in words) (human plasma [2]; in vitro, 0.5 mg/ml): significantly prolong
- F VII (%) (F VII; 0.01 mg/ml): 67%
- F VII (%) (F VII; 0.05 mg/ml): 57%
- F VII (%) (F VII; 0.1 mg/ml): 51%
- effect on Factor VII (F VII; 0.5 mg per ml): significant inhibitory effect
- F VII (%) (F VII; 0.5 mg/ml): 23%
- F VII (%) (F VII; 1.0 mg/ml): 8%
- F VII (%) (F VII; 5.0 mg/ml): 1%
- F IX (%) (F IX; 0.01 mg/ml): 60%
- F IX (%) (F IX; 0.05 mg/ml): 52%
- F IX (%) (F IX; 0.1 mg/ml): 56%
- effect on Factor IX (F IX; 0.5 mg per ml): significant inhibitory effect
- F IX (%) (F IX; 0.5 mg/ml): 4%
- F IX (%) (F IX; 1.0 mg/ml): 3%
- F IX (%) (F IX; 5.0 mg/ml): <1%
- F X (%) (F X; 0.01 mg/ml): 73%
- F X (%) (F X; 0.05 mg/ml): 68%
- F X (%) (F X; 0.1 mg/ml): 66%
- effect on Factor X (F X; 0.5 mg per ml): significant inhibitory effect
- F X (%) (F X; 0.5 mg/ml): 31%
- F X (%) (F X; 1.0 mg/ml): 11%
- F X (%) (F X; 5.0 mg/ml): 3%
- F XI (%) (F XI; 0.01 mg/ml): 98%
- F XI (%) (F XI; 0.05 mg/ml): 81%
- F XI (%) (F XI; 0.1 mg/ml): 58%
- effect on Factor XI (F XI; 0.5 mg per ml): significant inhibitory effect
- F XI (%) (F XI; 0.5 mg/ml): 27%
- F XI (%) (F XI; 1.0 mg/ml): 4%
- F XI (%) (F XI; 5.0 mg/ml): <1%
- F XII (%) (F XII; 0.01 mg/ml): 94%
- F XII (%) (F XII; 0.05 mg/ml): 87%
- F XII (%) (F XII; 0.1 mg/ml): 79%
- effect on Factor XII (F XII; 0.5 mg per ml): significant inhibitory effect
- F XII (%) (F XII; 0.5 mg/ml): 17%
- F XII (%) (F XII; 1.0 mg/ml): 3%
- F XII (%) (F XII; 5.0 mg/ml): <1%
- PT and PTT (effect in words) (rabbit plasma): significantly prolong
- blood coagulation factors (rabbit plasma; rabbit plasma, compared with human plasma): not as sensitive
- mortality of infused rabbits [3]: died
- radioactivity (I 125 fibrinogen) in damaged jugular vein of saline control rabbit relative to treated rabbit [3]: seven times
- thrombus formation in the jugular vein (conclusion in words) [3]: definite positive effect of decreasing thrombus formation

Compound: CCN(CC)CC.O=S(O)O [TRIETHYL AMINE BISULFITE, triethyl amine bisulfite]
- MEAN LSD (PT) (human plasma [1]): 21.3 ± 3.0 s
- PT (effect in words) (human plasma [1]): significantly prolong
- PT(Sec) […]. 1 (human plasma [1]): 23.3 s
- PT(Sec) […]. 2 (human plasma [1]): 25.3 s
- PT(Sec) […]. 3 (human plasma [1]): 18.5 s
- PT(Sec) […]. 4 (human plasma [1]): 18.9 s
- PT(Sec) […].5 (human plasma [1]): 20.4 s
- MEAN LSD (PTT) (human plasma [2]): 73.1 ± 8.3 s
- PTT (effect in words) (human plasma [2]): significantly prolong
- PTT(Sec) […]. 1 (human plasma [2]): 24.7 s
- PTT(Sec) […]. 2 (human plasma [2]): 86.3 s
- PTT(Sec) […]. 3 (human plasma [2]): 64.2 s
- PTT(Sec) […]. 4 (human plasma [2]): 71.2 s
- PTT(Sec) […].5 (human plasma [2]): 68.9 s
- inhibition of coagulation factor VII (F VII): active
- inhibition of coagulation factor IX (F IX): active
- Factor IX (%) (F IX): 14%
- inhibition of coagulation factor X (F X): active
- inhibition of coagulation factor XI (F XI): active
- inhibition of coagulation factor XII (F XII): active
- PT and PTT (effect in words) (rabbit plasma): significantly prolong
- radioactivity (I 125 fibrinogen) in damaged jugular vein of saline control rabbit relative to treated rabbit [3]: seven times
- thrombus formation in the jugular vein (conclusion in words) [3]: definite positive antithrombotic effect

Compound: C[N+](C)(C)C [Tetramethyl-ammonium bisulfite]
- PT sec. (human plasma [1]): 21.7 s
- PT (effect in words) (human plasma [1]; in vitro, 0.5 mg/ml): significantly prolong
- PTT (effect in words) (human plasma [2]; in vitro, 0.5 mg/ml): significantly prolong
- inhibition of coagulation factor VII (F VII): active
- inhibition of coagulation factor IX (F IX): active
- Factor IX (%) (F IX): 12.5%
- inhibition of coagulation factor X (F X): active
- inhibition of coagulation factor XI (F XI): active
- inhibition of coagulation factor XII (F XII): active
- PT and PTT (effect in words) (rabbit plasma): significantly prolong
- mortality of infused rabbits [3]: death of the rabbit
